Assay [1] concerns the target T1, Glycylpeptide N-tetradecanoyltransferase (Candida albicans (strain SC5314 / ATCC MYA-2876) (Yeast), UniProt P30418).
T1 sequence (P30418 whole entry): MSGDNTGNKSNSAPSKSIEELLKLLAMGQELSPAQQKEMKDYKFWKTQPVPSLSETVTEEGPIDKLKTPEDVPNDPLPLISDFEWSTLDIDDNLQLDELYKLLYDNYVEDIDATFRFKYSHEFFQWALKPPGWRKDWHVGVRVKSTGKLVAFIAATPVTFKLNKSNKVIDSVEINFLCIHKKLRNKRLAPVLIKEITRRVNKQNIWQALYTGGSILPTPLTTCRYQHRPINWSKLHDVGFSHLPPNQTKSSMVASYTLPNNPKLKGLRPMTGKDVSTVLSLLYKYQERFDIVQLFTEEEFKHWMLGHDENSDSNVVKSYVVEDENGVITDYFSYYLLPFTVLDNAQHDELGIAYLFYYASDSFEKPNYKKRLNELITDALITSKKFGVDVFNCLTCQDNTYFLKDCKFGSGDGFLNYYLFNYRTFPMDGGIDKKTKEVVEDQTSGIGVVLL
Nature of the assay: Inhibitory activity against N-myristoyltransferase (NMT) of candida albicans.

Assay [2] deals with T2, Peptide N-myristoyltransferase (Homo sapiens, UniProt P30419+O60551).
T2 sequence (P30419 whole entry): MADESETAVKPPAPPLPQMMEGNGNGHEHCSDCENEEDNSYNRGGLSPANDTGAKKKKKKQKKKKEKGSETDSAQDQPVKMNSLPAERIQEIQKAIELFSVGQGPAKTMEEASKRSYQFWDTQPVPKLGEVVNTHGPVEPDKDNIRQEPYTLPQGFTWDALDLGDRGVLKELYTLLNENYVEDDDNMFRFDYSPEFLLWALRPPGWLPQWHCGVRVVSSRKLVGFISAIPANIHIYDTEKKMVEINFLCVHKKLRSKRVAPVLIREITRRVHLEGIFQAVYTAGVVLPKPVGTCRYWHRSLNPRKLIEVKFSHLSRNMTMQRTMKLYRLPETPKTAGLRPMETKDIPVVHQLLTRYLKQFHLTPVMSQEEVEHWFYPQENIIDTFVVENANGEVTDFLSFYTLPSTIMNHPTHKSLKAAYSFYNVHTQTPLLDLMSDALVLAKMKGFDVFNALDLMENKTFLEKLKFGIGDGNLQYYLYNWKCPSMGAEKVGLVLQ
T2 sequence (O60551 whole entry): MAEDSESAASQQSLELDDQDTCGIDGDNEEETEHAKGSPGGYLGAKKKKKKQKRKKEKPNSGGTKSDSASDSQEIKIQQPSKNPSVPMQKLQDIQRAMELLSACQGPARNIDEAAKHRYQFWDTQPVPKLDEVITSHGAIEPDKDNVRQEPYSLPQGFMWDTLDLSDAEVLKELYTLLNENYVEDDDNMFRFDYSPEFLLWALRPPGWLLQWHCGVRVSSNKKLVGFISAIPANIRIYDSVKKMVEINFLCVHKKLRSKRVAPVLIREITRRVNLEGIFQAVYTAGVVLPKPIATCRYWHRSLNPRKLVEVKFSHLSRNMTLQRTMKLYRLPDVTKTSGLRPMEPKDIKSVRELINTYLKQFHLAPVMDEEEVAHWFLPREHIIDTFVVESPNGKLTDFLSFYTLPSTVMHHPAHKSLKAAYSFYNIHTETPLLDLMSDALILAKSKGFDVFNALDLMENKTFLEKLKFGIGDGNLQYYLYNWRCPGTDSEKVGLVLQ
Nature of the assay: Inhibition of human N-myristoyltransferase (NMT). Format: protein assay.

Assay [3] is described as follows: Ratio of the IC50 against human NMT to the IC50 against Candida albicans NMT.
In assay [4] the target is T2, Peptide N-myristoyltransferase. Nature of the assay: The binding affinity was evaluated against the acyl transferase's peptide, N-myristoyltransferase binding site. Format: protein assay.
The target of assay [5] is Glycylpeptide N-tetradecanoyltransferase (Candida albicans) (UniProt P30418). Nature of the assay: The binding affinity was evaluated towards N-myristoyltransferase (NMT) in the presence of the peptide substrate GNAASARR-NH2.

Non-standard residues stand in square brackets, D forms with d. Residues, ends and D or L forms follow the SMILES beside them. *: point of attachment. Cha = N[C@@H](CC1CCCCC1)C(=O)O; Chg = N[C@H](C(=O)O)C1CCCCC1; NHPhenethyl = c1ccc(CCN*)cc1; 12Ado = NCCCCCCCCCCCC(=O)O; Aun = NCCCCCCCCCCC(=O)O; Ahp = NCCCCCCC(=O)O; βAla = NCCC(=O)O; Sar = CNCC(=O)O

Take `COC(=O)[C@H](CC(C)C)NC(=O)[C@H](CCCCN)NC(=O)[C@H](CO)NC(=O)CCCCCCCCCCCN` (H-[12Ado]SKL-OMe): half-maximal inhibition in assay [1] (IC50) required 0.27 µM.
`CC(C)CNC(=O)[C@H](CCCCN)NC(=O)[C@H](CO)NC(=O)CCCCCCCCCCN`: in assay [1], the IC50 (commonly the point on the concentration scale where inhibition reaches its midpoint) is greater than 10 µM.
With `NCCCC[C@H](NC(=O)[C@H](CO)NC(=O)CCCCC#Cc1ccc(CN)cc1)C(=O)NCCC1CCCCC1`, the 50% inhibitory concentration (IC50) was 0.17 µM in assay [1] and 0.76 µM in assay [2]. Besides, in assay [3], the Ratio was found to be 4.5.
Consider `NCCCCCc1cccc(CC(=O)N[C@@H](CO)C(=O)N[C@@H](CCCCN)C(=O)NCCC2CCCCC2)c1`, for which the IC50 in assay [1] came out at 0.52 µM; in assay [2], 1.8 µM. Further, the Ratio in assay [3] was 3.5.
Molecule `NCCCCCCCCCCC(=O)N[C@@H](CO)C(=O)N[C@@H](CCCCN)C(=O)N[C@H](C(N)=O)C1CCCCC1` (H-[Aun]SK[Chg]-NH2) registered an IC50 in assay [1] of 0.76 µM. In other words, the sub-micromolar range.
For `NCCCCCc1ccc(CC(=O)N[C@@H](CO)C(=O)N[C@@H](CCCCN)C(=O)NCCC2CCCCC2)cc1`, the IC50 in assay [1] was 0.19 µM; in assay [2], 0.99 µM. The Ratio in assay [3] was 5.2.
`CC(C)C[C@H](NC(=O)CCN)C(=O)N[C@@H](Cc1ccc(O)cc1)C(=O)N[C@@H](C)C(=O)N[C@@H](CO)C(=O)N[C@@H](CCCCN)C(=O)N[C@@H](CC(C)C)C(=O)N[C@@H](CO)C(N)=O` (H-[βAla]LYASKLS-NH2): it took 110 µM to reach half-maximal inhibition in assay [1] (IC50).
As to `NCCCCCCCCc1ccc(CC(=O)N[C@@H](CO)C(=O)N[C@@H](CCCCN)C(=O)NCCC2CCCCC2)cc1`, the concentration for half-maximal inhibition (IC50) in assay [1] amounted to 0.75 µM; in assay [2] it was 53 µM. The Ratio in assay [3] was 70.
In assay [1], `CC(C)CCNC(=O)[C@H](CCCCN)NC(=O)[C@H](CO)NC(=O)CCCCCCCCCCN` came in with a half-inhibitory concentration (IC50) of 0.78 µM. Further, the Ratio in assay [3] came out at 0.5.
With `CNCC(=O)N[C@@H](CC(C)C)C(=O)N[C@@H](Cc1ccc(O)cc1)C(=O)N(C)CC(=O)N[C@@H](CO)C(=O)N[C@@H](CCCCN)C(=O)N[C@@H](CC(C)C)C(=O)N[C@@H](CO)C(N)=O` (H-[Sar]LY[Sar]SKLS-NH2), the IC50 in assay [1] was determined as 80 µM.
On the same count and under the same terms, for `CC(C)C[C@H](NC(=O)[C@H](CCCCN)NC(=O)[C@H](CO)NC(=O)CCCCCCCCCCN)C(N)=O` (stereo in doubt) the value was greater than 1000 µM; for `NCCCCCCCCCCC(=O)N[C@@H](CO)C(=O)N[C@@H](CCCCN)C(=O)NCC(N)=O` (H-[Aun]SKG-NH2), 16 µM.
As for `NCCCC[C@H](NC(=O)[C@H](CO)NC(=O)CCCCCCc1ccc(CN)cc1)C(=O)NCCC1CCCCC1`, the IC50 in assay [1] stood at 0.34 µM; in assay [2], 1.5 µM. For the same molecule, the Ratio in assay [3] turned out to be 4.4.
On to `CC(C)C[C@H](NC(=O)[C@H](CCCCN)NC(=O)[C@H](CO)NC(=O)CCCCCCCCCCN)C(N)=O` (stereo in doubt; 3a), for which the half-maximal inhibitory concentration (IC50) in assay [1] is 1.2 µM.
The same measure, in the same setting: the same measure for `NCCCCCCCCCCC(=O)N[C@@H](CO)C(=O)N[C@@H](CCCCN)C(=O)N[C@@H](CC1CCCCC1)C(N)=O` (H-[Aun]SK[Cha]-NH2): 0.36 µM; for `COC(=O)[C@H](CC(C)C)NC(=O)[C@H](CCCCN)NC(=O)[C@H](CO)NC(=O)CCCCCCCCCCN` (H-[Aun]SKL-OMe): 0.6 µM; for `COC(=O)[C@H](CC(C)C)NC(=O)[C@H](CCCCN)NC(=O)[C@H](CO)NC(=O)CCCCCCCCCCN(C)C`: 0.69 µM.
In the case of `NCCCC[C@H](NC(=O)[C@H](CO)NC(=O)Cc1ccc(CCc2ccc(CN)cc2)cc1)C(=O)NCCC1CCCCC1`, the half-maximal inhibitory concentration (IC50) in assay [1] turned out to be 0.75 µM; in assay [2], 62 µM. In addition, in assay [3], the Ratio was found to be 83.
Regarding `NCCCCCCCCCCC(=O)N[C@@H](CO)C(=O)N[C@@H](CCCCN)C(=O)N[C@@H](Cc1ccccc1)C(N)=O` (H-[Aun]SKF-NH2), in assay [1], the 50% inhibitory concentration (IC50) is 8.2 µM.
In turn, `C[C@H](NC(=O)[C@H](CCCCN)NC(=O)[C@H](CO)NC(=O)CCCCCCCCCCN)C(N)=O` (H-[Aun]SKA-NH2) yielded a half-maximal inhibitory concentration (IC50) in assay [1] of 16 µM.
On the same count and under the same terms, for `CNCCCCCCCCCCC(=O)N[C@@H](CO)C(=O)N[C@@H](CCCCN)C(=O)N[C@@H](CC(C)C)C(=O)OC` the value was 0.35 µM.
H-ALYASKLS-NH2: in assay [4], the Ki app stood at 15.3 µM.
`COC(=O)[C@H](CC(C)C)NC(=O)[C@H](CCCCN)NC(=O)[C@H](CO)NC(=O)CCCCCCCCN` came in with an IC50 in assay [1] of 5.2 µM.
Take `NCCCC[C@H](NC(=O)[C@H](CO)NC(=O)Cc1ccc(C#Cc2ccc(CN)cc2)cc1)C(=O)NCCC1CCCCC1`: the concentration for half-maximal inhibition (IC50) in assay [1] was greater than 10 µM.
As for `NCCCCCCCCCCC(=O)N[C@@H](CO)C(=O)N[C@@H](CCCCN)C(=O)NCCCC1CCCCCCC1`, the half-inhibitory concentration (IC50) in assay [1] amounted to 0.3 µM; in assay [2] it was 1.14 µM. Also, the Ratio in assay [3] is 3.8.
In assay [1], `NCCCCCCCCCCC(=O)N[C@@H](CO)C(=O)N[C@@H](CCCCN)C(=O)NCCCC1CCCCC1` showed an IC50 of 1.3 µM.
Take `NCCCCCCCCCCC(=O)N[C@@H](CO)C(=O)N[C@@H](CCCCN)C(=O)NCCc1ccccc1` (H-[Aun]-Ser-Lys-NHPhenethyl): 5 µM corresponded to half-maximal inhibition in assay [1] (IC50).
The same measure, in the same setting: the same measure for `COC(=O)[C@H](CC(C)C)NC(=O)[C@H](CCCCN)NC(=O)[C@H](CO)NC(=O)CCCCCCN` (H-[Ahp]SKL-OMe): greater than 100 µM.
Same read-out and setting: the same measure for `CC(C)(C)CCNC(=O)[C@H](CCCCN)NC(=O)[C@H](CO)NC(=O)CCCCCCCCCCN`: 1.2 µM.
Regarding `NCCCCCCc1ccc(CC(=O)N[C@@H](CO)C(=O)N[C@@H](CCCCN)C(=O)NCCC2CCCCC2)cc1`, the Ki (in general, a dissociation constant, usually derived from enzyme kinetics or from competition with a known ligand) in assay [5] came out at 0.06 µM. Besides, the 50% inhibitory concentration (IC50) worked out at 0.11 µM in assay [1] and 0.8 µM in assay [2]. Besides, the Ratio in assay [3] is 7.3.
Turning to `CC(C(=O)N[C@@H](CO)C(=O)N[C@@H](CCCCN)C(=O)NCCC1CCCCC1)c1ccc(CCCCCCN)cc1` (stereo not given in full), the IC50 worked out at 0.043 µM in assay [1] and 0.79 µM in assay [2]. For the same molecule, the Ratio in assay [3] is 18.
For the molecule `CC(C)CCNC(=O)[C@@H](CCCCN)NC(=O)[C@@H](CO)NC(=O)CCCCCCCCCCN`, in assay [1], the concentration for half-maximal inhibition (IC50) amounted to 365 µM.
`CC[C@H](C)[C@H](NC(=O)[C@H](CCCCN)NC(=O)[C@H](CO)NC(=O)CCCCCCCCCCN)C(N)=O` (H-[Aun]SKI-NH2) displayed an IC50 in assay [1] of 3.9 µM.
With `CC(C)[C@H](NC(=O)[C@H](CCCCN)NC(=O)[C@H](CO)NC(=O)CCCCCCCCCCN)C(N)=O` (H-[Aun]SKV-NH2), 19 µM corresponded to half-maximal inhibition in assay [1] (IC50). This IC50 is about 4.9-fold higher than that of the molecule before.
Still for that read-out and setting: for `COC(=O)[C@H](CC(C)C)NC(=O)[C@H](CCCCN)NC(=O)[C@H](CO)NC(=O)CCCCCCCCCN` the value was 0.3 µM.
